The values that follow come from ChEMBL document CHEMBL1955858, “Synthesis and biological evaluation of novel amprenavir-based P1-substituted bi-aryl derivatives as ultra-potent HIV-1 protease inhibitors” (Bioorg Med Chem Lett, 2012).

In one data set the target is Protease (Human immunodeficiency virus 1, UniProt Q9YQ12). As to the kind of experiment: Inhibition of HIV1 protease using Arg-Glu(EDANS)-Ser-Gln-Asn-Tyr-Pro-Ile-Val-Gln-Lys(DABCYL)- Arg as substrate for 20 to 30 mins by FRET analysis.
For data set [1], the system named is Human immunodeficiency virus 1. Kind of data set: Antiviral activity against HIV1 3B infected in human C8166 cells assessed as inhibition of syncytia formation after 3 days. It counts as functional, organism-based. The note with it: Human immunodeficiency virus 1, 3B, C8166, 72 h.
The nature of data set [2]: Cytostatic activity against human C8166 cells by MTT assay. Format: cell-based.
A short description of data set [3]: Selectivity index, ratio of CC50 for human C8166 cells to EC50 for HIV1 3B. Format: toxicity, cell-based. The note with it: read-out: Ratio CC50/EC50.
The test system of data set [4] is Human immunodeficiency virus 1. Kind of data set: Ratio of amprenavir EC50 to compound EC50 for HIV1 3B. It counts as functional.
Data set [5] deals with Protease (Human immunodeficiency virus 1) (UniProt Q9YQ12). As to the kind of experiment: Ratio of amprenavir Ki to compound Ki for HIV1 protease.
Chain of Protease (Human immunodeficiency virus 1) (Q9YQ12 as listed by the source): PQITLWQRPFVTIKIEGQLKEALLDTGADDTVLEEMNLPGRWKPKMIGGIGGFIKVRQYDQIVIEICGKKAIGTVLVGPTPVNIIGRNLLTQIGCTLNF

Chain of Protease (Q9YQ12 whole entry): as the sequence (Q9YQ12 as listed by the source) above

On Protease, `COc1ccc(S(=O)(=O)N(CC(C)C)C[C@@H](O)[C@H](Cc2ccc(-c3cccc(C#N)c3)cc2)NC(=O)O[C@H]2CCOC2)cc1` showed an inhibitory constant (Ki) of 8.1 nM. The EC50 in data set [1] was found to be 9.2 nM. Besides, the 50% cytotoxic concentration (CC50) in data set [2] was found to be 320000 nM. The selectivity ratio in data set [3] came out at 34800.
On Protease, `COc1ccc(S(=O)(=O)N(CC(C)C)C[C@@H](O)[C@H](Cc2ccc(-c3ccc(Cl)cc3)cc2)NC(=O)O[C@H]2CCOC2)cc1` gave a Ki of 6.4 nM. In data set [1], the EC50 was 4.29 nM. In data set [2], this molecule came in with a cytotoxic concentration (CC50) of 230000 nM. In addition, in data set [3], the selectivity ratio came out at 53600.
For `COc1ccc(S(=O)(=O)N(CC(C)C)C[C@@H](O)[C@H](Cc2ccc(-c3ccc(F)cc3)cc2)NC(=O)O[C@H]2CCOC2)cc1` the same measures were 5.8 nM, 3.98 nM, 140000 nM and 35200.
For `COc1ccc(S(=O)(=O)N(CC(C)C)C[C@@H](O)[C@H](Cc2ccc(-c3ccc(OC(F)(F)F)cc3)cc2)NC(=O)O[C@H]2CCOC2)cc1`, in that order: 5.2 nM, 6.04 nM, 170000 nM and 28100.
For `COc1ccc(S(=O)(=O)N(CC(C)C)C[C@@H](O)[C@H](Cc2ccc(-c3ccc(OC)c(C)c3)cc2)NC(=O)O[C@H]2CCOC2)cc1`, in that order: 1.8 nM, 3.63 nM, 170000 nM and 46800.
Turning to `CC(C)CN(C[C@@H](O)[C@H](Cc1ccc(-c2ccccc2)cc1)NC(=O)O[C@H]1CCOC1)S(=O)(=O)c1ccc(N)cc1`, on Protease, the Ki stood at 1.98 nM. Moreover, the EC50 in data set [1] amounted to 2.25 nM. Further, it took 32000 nM to reach half-maximal cytotoxicity in data set [2] (CC50). Also, the selectivity ratio in data set [3] turned out to be 14200.
For `COc1ccc(S(=O)(=O)N(CC(C)C)C[C@@H](O)[C@H](Cc2ccc(-c3cccnc3)cc2)NC(=O)O[C@H]2CCOC2)cc1`, in that order: 1.6 nM, 3.08 nM, 210000 nM and 68200.
On Protease, `CC(C)CN(C[C@@H](O)[C@H](Cc1ccc(-c2ccncc2)cc1)NC(=O)O[C@H]1CCOC1)S(=O)(=O)c1ccc(N)cc1` displayed an inhibition constant Ki of 0.086 nM. Also, in data set [1], the EC50 is 0.1 nM. In data set [2], this molecule returned a cytotoxic concentration (CC50) of 260000 nM. Further, the selectivity ratio in data set [3] is 2.6e+06. The “Ratio EC50” value in data set [4] came to 30.
On to `COC(=O)c1cccc(-c2ccc(C[C@H](NC(=O)O[C@H]3CCOC3)[C@H](O)CN(CC(C)C)S(=O)(=O)c3ccc(OC)cc3)cc2)c1`, for which the affinity on Protease, expressed as Ki, was 1.6 nM. For the same molecule, the EC50 in data set [1] worked out at 3.46 nM. The midpoint of cytotoxicity in data set [2], the CC50, lay at 190000 nM. Besides, in data set [3], the selectivity ratio was found to be 54900.
For `COc1ccc(S(=O)(=O)N(CC(C)C)C[C@@H](O)[C@H](Cc2ccc(-c3ccc(SC)cc3)cc2)NC(=O)O[C@H]2CCOC2)cc1`, in that order: 7.4 nM, 6.89 nM, 240000 nM and 34800.
For `COc1ccc(S(=O)(=O)N(CC(C)C)C[C@@H](O)[C@H](Cc2ccc(-c3cccc(O)c3)cc2)NC(=O)O[C@H]2CCOC2)cc1`, in that order: 4.3 nM, 4.3 nM, 41000 nM and 9540.
`CC(C)CN(C[C@@H](O)[C@H](Cc1ccc(-c2cccnc2)cc1)NC(=O)O[C@H]1CCOC1)S(=O)(=O)c1ccc(N)cc1` came in with an inhibition constant (Ki) on Protease of 0.33 nM. Also, the half-maximal effective concentration (EC50) in data set [1] was 0.1 nM. Besides, the CC50 in data set [2] was found to be 200000 nM. Also, in data set [5], the Ratio Ki was determined as 2. In data set [3], the selectivity ratio is 2e+06. Further, the “Ratio EC50” value in data set [4] is 30.
As to `COc1ccc(S(=O)(=O)N(CC(C)C)C[C@@H](O)[C@H](Cc2ccc(-c3ccncc3)cc2)NC(=O)O[C@H]2CCOC2)cc1`, the affinity on Protease, expressed as Ki, was 3.8 nM. In addition, the EC50 in data set [1] was 2.68 nM. Also, in data set [2], the midpoint of cytotoxicity, the CC50, lay at 260000 nM. In data set [3], the selectivity ratio was 97000.
As for `CC(C)CN(C[C@@H](O)[C@H](Cc1ccccc1)NC(=O)O[C@H]1CCOC1)S(=O)(=O)c1ccc(N)cc1` [AMPRENAVIR], the inhibition constant Ki at Protease amounted to 0.84 nM. Besides, the EC50 in data set [1] worked out at 2.93 nM. Besides, it took 230000 nM to reach half-maximal cytotoxicity in data set [2] (CC50). In addition, the selectivity ratio in data set [3] was 78500.
For `COc1ccc(S(=O)(=O)N(CC(C)C)C[C@@H](O)[C@H](Cc2ccc(-c3ccc(C(=O)O)cc3)cc2)NC(=O)O[C@H]2CCOC2)cc1` the same measures were 1.9 nM, 5.53 nM, 140000 nM and 25300.
At Protease, `COc1ccc(S(=O)(=O)N(CC(C)C)C[C@@H](O)[C@H](Cc2ccc(-c3ccsc3)cc2)NC(=O)O[C@H]2CCOC2)cc1` displayed a Ki of 3.5 nM. In addition, the half-maximal effective concentration (EC50) in data set [1] turned out to be 4.48 nM. Besides, in data set [2], half-maximal cytotoxicity (CC50) was put at 160000 nM. Moreover, the selectivity ratio in data set [3] is 35700.
For `COc1ccc(S(=O)(=O)N(CC(C)C)C[C@@H](O)[C@H](Cc2ccc(-c3ccc(C(C)=O)cc3)cc2)NC(=O)O[C@H]2CCOC2)cc1` the same measures were 5.8 nM, 2.32 nM, 210000 nM and 90500.

In general, Ki refers to a measure of affinity in units of concentration, obtained from inhibition or displacement. A higher Ki goes with weaker binding. Usually EC50 stands for the concentration needed to bring the measured effect to its halfway point. Usually CC50 stands for the concentration giving 50% cytotoxicity.
